Columns and labels:
Calpain-1 [1] = biological target: T1, Calpain-1 (Homo sapiens, UniProt P07384); details: pan-papain family cysteine protease ABP; cited from earlier work
T1 sequence (P07384 1-714): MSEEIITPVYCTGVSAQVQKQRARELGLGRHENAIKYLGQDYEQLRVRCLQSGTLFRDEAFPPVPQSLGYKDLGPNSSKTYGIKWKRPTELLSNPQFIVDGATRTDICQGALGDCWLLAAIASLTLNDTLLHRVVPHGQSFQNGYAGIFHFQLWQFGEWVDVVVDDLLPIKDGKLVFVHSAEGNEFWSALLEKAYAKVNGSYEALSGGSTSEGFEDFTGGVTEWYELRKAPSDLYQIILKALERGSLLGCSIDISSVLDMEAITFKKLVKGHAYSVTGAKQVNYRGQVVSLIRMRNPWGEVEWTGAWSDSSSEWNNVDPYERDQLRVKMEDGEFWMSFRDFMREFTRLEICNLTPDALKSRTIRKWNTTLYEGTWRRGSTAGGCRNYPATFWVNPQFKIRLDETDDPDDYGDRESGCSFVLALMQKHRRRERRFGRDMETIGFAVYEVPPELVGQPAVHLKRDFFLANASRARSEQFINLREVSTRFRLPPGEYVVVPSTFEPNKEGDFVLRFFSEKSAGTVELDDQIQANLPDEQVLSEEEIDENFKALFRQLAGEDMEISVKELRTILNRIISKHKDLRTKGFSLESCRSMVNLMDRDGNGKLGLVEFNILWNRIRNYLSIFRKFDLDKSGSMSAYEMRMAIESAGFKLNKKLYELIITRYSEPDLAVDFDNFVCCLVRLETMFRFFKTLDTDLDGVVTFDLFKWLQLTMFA
T1 sequence (P04632 1-268 partner): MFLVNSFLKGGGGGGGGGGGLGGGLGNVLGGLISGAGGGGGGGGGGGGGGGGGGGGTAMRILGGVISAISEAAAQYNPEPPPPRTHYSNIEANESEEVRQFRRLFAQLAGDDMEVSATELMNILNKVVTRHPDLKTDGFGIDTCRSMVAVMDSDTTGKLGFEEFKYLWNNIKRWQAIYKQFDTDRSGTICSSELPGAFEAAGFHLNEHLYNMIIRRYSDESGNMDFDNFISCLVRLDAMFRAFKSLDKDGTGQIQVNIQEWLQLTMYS

Cathepsin L = Cathepsin L (Homo sapiens, UniProt P07711); assay: Protease fluorescence activity assay, cathepsin L inhibition; assay type: biochemical; details: crosslinked peptide; ratio of Ki values
Calpain-1 [2] = biological target: T1, Calpain-1; assay: Kinetic analysis of calpain-1 inhibition; assay type: biochemical; details: crosslinked peptide; Michaelis-Menten and Lineweaver-Burke analysis

Cathepsin L, sequence (P07711 114-333, species assumed): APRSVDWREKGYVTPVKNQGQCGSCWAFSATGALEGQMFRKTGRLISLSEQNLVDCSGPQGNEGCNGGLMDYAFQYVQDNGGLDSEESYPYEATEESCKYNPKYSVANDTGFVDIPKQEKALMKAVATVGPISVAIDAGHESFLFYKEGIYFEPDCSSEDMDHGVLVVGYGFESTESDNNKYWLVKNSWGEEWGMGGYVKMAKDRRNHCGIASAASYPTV

Structure (SMILES) | Labeling of calpains (positive control) (Calpain-1 [1]) | Potency against calpain over cathepsin L (Cathepsin L) | Mechanism of calpain-1 inhibition (Calpain-1 [2])
CCOC(=O)[C@H]1O[C@@H]1C(=O)N[C@@H](CC(C)C)C(=O)N[C@@H](Cc1ccc(O)cc1)C(=O)NCCCCCC(=O)N[C@@H](CCCCNC(=O)CCCC[C@@H]1SC[C@@H]2NC(=O)N[C@@H]21)C(N)=O [DCG-04] | known to label calpains | – | –
CC[C@H](C)[C@H](NC(C)=O)C(=O)N1CCC[C@H]1C(=O)N1CCC[C@H]1C(=O)N[C@@H](CCCCN)C(=O)N[C@@H](Cc1ccc(O)cc1)C(=O)N[C@H]1CSCc2cccc(c2)CSC[C@@H](C(N)=O)NC(=O)[C@H](CC(C)C)NC(=O)[C@H](CC(C)C)NC(=O)[C@H](CCC(=O)O)NC1=O [Peptide 3c] | – | about four fold more potent | competitive inhibitor

Source: publication PMC3523126 (Journal of the American Chemical Society, 2012)
